System: inflammation induced by tetradecanoyl phorbol acetate (TPA)
Assay: TPA model: inflammation (ear edema) induced by tetradecanoyl phorbol acetate in mice
Type: in vivo
Conditions: 100 μg/ear topical, mouse ear, TPA stimulus, edema measured four hours later
From the text: One such model is the inflammation induced by tetradecanoyl phorbol acetate (TPA). The test methods are modified from those of Marks et al. (Cancer Res, 36, p. 2636, 1976). The TPA model is a murine model which mimics many of the inflammatory changes which occur in human disease such as psoriasis. In this model, elevated levels of inflammatory arachidonic acid metabolites are found, and an influx or polymorphonuclear leukocytes (PMN) is observed. The procedure used to evaluate the compounds of this invention is as follows: the test compound (100 μg/ear) is applied to the ears of mice in an appropriate vehicle, such as acetone, and then the inflammatory stimulus is applied to the right ear. Four hours later, the edema is measured by removing standard sized discs from the mouse ears using a biopsy punch. The masses of the discs are then determined.

Structure (SMILES): CCC(n1ccnc1)C(O)(c1ccc(F)cc1)c1ccc(F)cc1 (racemic) [Example 3a, 1,1-bis(4-fluorophenyl)-2-(1-imidazolyl)butanol]
- % Inhibition of Control Inflammation: 40%

Structure (SMILES): OC(CCCn1ccnc1)(c1ccc(F)cc1)c1ccc(F)cc1 [Example 1a, 1,1-bis(4-fluorophenyl)-4-(1-imidazolyl)butanol]
- % Inhibition of Control Inflammation: 31%

Structure (SMILES): OC(Cn1ccnc1)(c1ccc(F)cc1)c1ccc(Br)cc1 (centres unmarked) [Example 2b, 1-(4-fluorophenyl)-1-(4-bromophenyl)-2-(1-imidazolyl)-ethanol]
- % Inhibition of Control Inflammation: 41%

Structure (SMILES): CC(n1ccnc1)C(O)(c1ccc(F)cc1)c1ccc(F)cc1 (centres unmarked) [Example 3b]
- % Inhibition of Control Inflammation: 40%

Structure (SMILES): CCCC(n1ccnc1)C(O)(c1ccc(F)cc1)c1ccc(F)cc1 (centres unmarked) [Example 3c]
- % Inhibition of Control Inflammation: 30%

Structure (SMILES): CC(n1ccnc1)C(O)(c1ccc(Cl)cc1)c1ccc(Cl)cc1 (centres unmarked) [Example 3e]
- % Inhibition of Control Inflammation: 55%

Structure (SMILES): Cc1ccc(C(O)(c2ccc(C)cc2)[C@H](C)n2ccnc2)cc1 [Example 4a, (S)-1,1-bis(4-methylphenyl)-2-(1-imidazolyl)propanol]
- % Inhibition of Control Inflammation: 33%

Structure (SMILES): C[C@@H](n1ccnc1)C(O)(c1ccc(Cl)cc1)c1ccc(Cl)cc1 [Example 5a, (R)-1,1-bis(4-chlorophenyl)-2-(1-imidazolyl)propanol]
- % Inhibition of Control Inflammation: 61%
